One assay has as its system HT-29/5-FU-R cells. The experiment in a line: Western blotting of Chk2 after 4DPG. It is filed as cell-based. The settings on record: 48 h, vs vehicle. From the text: (§1) 4DPG, a podophyllotoxin class of natural product anticancer compound (Supplementary Fig. S2A) has been recently described by our research group for its potent antitumor and anti-metastatic properties against aggressive cancers[31],[32]. Further, 4DPG augments phosphorylation and activation of Chk2 (Thr68) leading to suppression of EMT and invasiveness of p53-defective cancer cells. To investigate the effect of 4DPG on phosphorylation and expression levels of Chk2 in HCT-116/5-FU-R, SW-620/5-FU-R, and HT-29/5-FU-R cells, we treated these cells for 48 h with increasing concentrations of the compound, and whole-cell lysates were subjected to western blotting analysis. […] To determine the effect of 4DPG on the invasion abilities of these 5-FU-R cells, we performed in situ fluorescent gelatin degradation assay following our pre-standardized protocol[31],[37]. In physiological conditions, this assay mimics the extracellular matrix degradation by aggressive tumor cells undergoing invasion–metastasis process.
We adhered to the previously published protocol for western blotting. To sum up, cells were exposed to the respective treatments (mentioned in figure legends). Post-treatment, cells were lysed with cell lysis buffer, and cell lysates were collected after centrifugation. Bradford assay was performed to quantify the protein concentration. […]

The next assay relates to HCT-116/5-FU-R cells. The experiment in a line: Immunocytochemistry of Vimentin. It is filed as cell-based. As to conditions: 300 nM, 48 h.
Excerpt: as §1
(§2) Fig. 2 4DPG activates Chk2 and attenuates EMT in 5-FU-R CRC cells. […] G Quantification of the area of degradation through Image J software. n = 3, error bars, mean ± SD; ***P < 0.001. […]

For another assay, the system named is SW-620/5-FU-R cells. Put plainly: In situ fluorescent gelatin degradation assay (invadopodia). It is filed as cell-based. As to conditions: 48 h, vs vehicle.
Excerpt: as §1, §2

For assay [1], the system named is tumor tissues of orthotopic rat colorectal carcinoma. The experiment in a line: Immunohistochemical analysis of tumor tissues. It is filed as in vivo, Wistar rats. The settings on record: 25 mg/kg, vs saline-treated group. The procedure:
The procedure was performed following our pre-standardized protocol with minor modifications. Paraffin-embedded tissue sections were prepared from the tumors of saline, 5-FU, and 4DPG-treated groups of animals. Primary antibodies used: p-Chk2 (T68), Chk2, p53, p-Vimentin (S38) and Vimentin at 1:150 dilution for overnight at 4 °C.

Each structure is given as a SMILES string.

Take `COc1cc([C@@H]2c3cc4c(cc3C[C@H]3COC(=O)[C@@H]32)OCO4)cc(OC)c1O[C@@H]1O[C@H](CO)[C@@H](O)[C@H](O)[C@H]1O` [4DPG, 4′-demethyl-deoxypodophyllotoxin glucoside]: in the assay on HT-29/5-FU-R cells (300 nM (sub-toxic)), the “increase in p-Chk2 (Thr68) level” value was 7.9 fold. The “expression of Chk2 (total)” value in the assay on HT-29/5-FU-R cells is “did not alter significantly”. Further, in the assay on HCT-116/5-FU-R cells, the “Vimentin expression level (immunocytochemistry)” value was “considerable decrease”. In addition, the “invadopodia formation and area of degradation over the gelatin matrix” value with SW-620/5-FU-R cells is “significantly reduced”. In assay [1], the “p-Vimentin (ser38) and Vimentin expression levels in tumor tissues (immunohistochemistry)” value is “decreased”; the “protein levels of p-Chk2 (Thr68) and p53 in tumor tissues (immunohistochemistry)” value is listed as “marked increase”.

The values above are taken from article PMC7838189, “Natural podophyllotoxin analog 4DPG attenuates EMT and colorectal cancer progression via activation of checkpoint kinase 2” (Cell Death Discovery, 2021).
